# Like-named read-outs stand apart in the source and are kept apart here.
# Key:
# [1] = Experimental: (§1) The redox reaction was carried out in a continuous glass reaction apparatus as described in D. Chen, R. J. Motekaitis, A. E. Martell and D. McManus, Can. J. Chem., 71, 1524 (1993) which is incorporated herein by reference.
# Experimental runs were also conducted with 2P6C, with and without K2 SO3 added as a stabilizer.
# [2] = remark: listed apart in the source
# Experimental: The degradation resistances of pyridine-2-phosphonic-6-carboxylic acid (2P6C) and pyridine-2,6-diphosphonic acid (2,6-PDPA), prepared by the synthesis schemes presented in FIGS. 2 and 3, respectively, were evaluated as described below. Both ligands were evaluated in the iron chelate form.
# 1. Degradation of Fe(III)-2P6C at pH 8.5 and 25° C. (Fe(III)0.018M, 2P6C 0.036 M; H2 S flow rate=2.0 mL/min.)
# as §1
# Preparation of iron-free sample. To 4.0 mL of solution taken from the continuous reactor, 100 mg of NaOH in 20 mL water were added dropwise with stirring. The mixture was heated to 70°-80° C. for 30 min. The Fe(OH)3 that precipitated was filtered off carefully and was washed several times with water. The filtrate was combined with the washings and was transferred to a 50 mL volumetric flask. The pH of the solution was adjusted with acid to 4.2, and then diluted with distilled water to 50 mL.
# Operating conditions. Analytical column: I-SIL 5 C8, reverse phase 4.5×150 mm; Column temperature: ambient; mobile phase flow rate: 1.5 mL/min; Detector: UV at 275 nm, 0.20 AUFS; Sample volume: 20 microliter; Recorder: 10 mV full-scale; Chart speed: 0.5 cm/min. The mobile phase contained: 0.0010 M Cu(II), 60:40 H2 O: MeOH, 2% HOAc, 0.2% CH3 (CH2)15 (CH3)3 NBr, adjusted to pH 4.2 With NaOH solution.
# Using the same test conditions described above, the degradation of nitrilotriacetic acid (NTA) was evaluated.
# [3] = Degradation of Fe(III) chelate ligand in H2S redox reaction in the presence of thiosulfate stabilizer; format: physicochemical; settings: for NTA (M) (concentration remaining) / NTA, % Remaining: Fe(III)-NTA, pH 8.5, 32 g Na2S2O3 per liter
# Text: Table 3 and FIG. 5 contain the data obtained from a run with the continuous glass reaction apparatus described above.
# [4] = Degradation of Fe(III)-2,6 PDPA in H2S redox reaction without stabilizer (uv-vis spectrophotometric analysis), pH 8.5 and 25° C.; format: physicochemical; settings: pH 8.5, 25° C., no stabilizer
# Experimental: Both ligands were evaluated in the iron chelate form.
# The concentration of 2,6 PDPA was analyzed by the following uv-vis spectrophotometric measurements: to 1.0 mL of solution taken from the continuous reactor, 150 mg of NaOH in 15 mL water was added with stirring. The mixture was heated with a steam-bath for 2 hr, then allowed to stand at room temperature for 2 hr. […] The filtrate combined with the washings, was transferred to a 50 mL volumetric flask, and diluted to […] with 6M HCl. This solution was ready for uv-vis spectrophotometric analysis.
# [5] = iron chelate, cited from earlier work
# [6] = h2s redox reactor, 100 h, 36000 µM, pH 8.5
smiles,measurement,setting,value
"O=C(O)c1cccc(P(=O)(O)O)n1 [2P6C, pyridine-2-phosphonic-6-carboxylic acid]",2P6C % Remaining,[1]; 0 min,100.0%
same,2P6C % Remaining,"[1]; h2s reactor, 5% k2so3, 2 h",100.0%
same,2P6C % Remaining,"[1]; h2s reactor, 5% k2so3, 20 h",97.7%
same,2P6C % Remaining,"[1]; h2s reactor, 5% k2so3, 44 h",97.6%
same,2P6C % Remaining,"[1]; h2s reactor, 5% k2so3, 68 h",97.4%
same,2P6C % Remaining,"[1]; h2s reactor, 5% k2so3, 92 h",98.9%
same,degradation compared with NTA,[2],degrades much more slowly than NTA
same,2P6C % Remaining,"[2]; 0 min, 36000 uM, pH 8.5",100.0%
same,2P6C % Remaining,"[2]; h2s redox reactor, 25 h, 36000 µM, pH 8.5",94.4%
same,2P6C % Remaining,"[2]; h2s redox reactor, 50 h, 36000 µM, pH 8.5",86.1%
same,2P6C % Remaining,"[2]; h2s redox reactor, 84 h, 36000 µM, pH 8.5",83.3%
same,2P6C % Remaining,[2]; [6],80.6%
same,2P6C lost after redox reaction,[2]; [6],about 20%
same,degradation during the redox reaction,[2]; pH 8.5,degrades very slowly
same,effect of hydroxylation/degradation on the process,[2]; pH 8.5,no deleterious effect on the process is observed
same,degradation in the presence of thiosulfate,[3],no detectable degradation was observed
"O=P(O)(O)c1cccc(P(=O)(O)O)n1 [2,6-PDPA, pyridine-2,6-diphosphonic acid]",degradation in the presence of thiosulfate,"[3]; after 100 hr of operation, thiosulfate",no detectable degradation was observed
same,degradation,"[4]; 100 hr, Fe(III) 0.0090 M, 2,6 PDPA 0.018 M",no significant degradation was observed
same,"degradation, estimated","[4]; over 100 hr, 18000 µM",less than 5%
"O=C(O)c1cccc(C(=O)O)n1 [2,6-pyridinedicarboxylic acid]",precipitation of ferric hydroxide from ferric chelate,[5]; normal pH of the process,unacceptable precipitation of ferric hydroxide
same,resistance to catalyst degradation,[5],good resistance to catalyst degradation
"O=C(O)CN(CC(=O)O)CC(=O)O [NTA, nitrilotriacetic acid]","NTA, % Remaining","[2]; 0 min, pH 8.5",100.0%
same,"NTA, % Remaining","[2]; h2s redox reactor, 12 h, pH 8.5",75.7%
same,"NTA, % Remaining","[2]; h2s redox reactor, 20 h, pH 8.5",65.7%
same,"NTA, % Remaining","[2]; h2s redox reactor, 30 h, pH 8.5",52.4%
same,"NTA, % Remaining","[2]; h2s redox reactor, 40 h, pH 8.5",49.4%
same,"NTA, % Remaining","[2]; h2s redox reactor, 64 h, pH 8.5",32.9%
same,"NTA, % Remaining","[2]; h2s redox reactor, 77 h, pH 8.5",26.2%
same,degradation with thiosulfate,[3],much slower when thiosulfate is added
same,rate of degradation with thiosulfate,[3],still measurable
same,NTA (M) (concentration remaining),[3]; 0 hr,0.0362 M
same,"NTA, % Remaining",[3]; 0 hr,100.0%
same,NTA (M) (concentration remaining),[3]; 14.0 hr,0.0344 M
same,"NTA, % Remaining",[3]; 14.0 hr,95.0%
same,NTA (M) (concentration remaining),[3]; 26.0 hr,0.0333 M
same,"NTA, % Remaining",[3]; 26.0 hr,92.0%
same,NTA (M) (concentration remaining),[3]; 39.0 hr,0.0320 M
same,"NTA, % Remaining",[3]; 39.0 hr,88.4%
same,NTA (M) (concentration remaining),[3]; 50.0 hr,0.0317 M
same,"NTA, % Remaining",[3]; 50.0 hr,87.6%
same,NTA (M) (concentration remaining),[3]; 66.0 hr,0.0306 M
same,"NTA, % Remaining",[3]; 66.0 hr,84.5%
same,NTA (M) (concentration remaining),[3]; 80.0 hr,0.0297 M
same,"NTA, % Remaining",[3]; 80.0 hr,82.0%
same,NTA (M) (concentration remaining),[3]; 99.0 hr,0.0293 M
same,"NTA, % Remaining",[3]; 99.0 hr,80.9%

# From patent US5686613A, “Tridentate metal ligands of certain pyridine phosphonic acids” (priority 1996, dated 1997)
